Results published in patent publication US9102648B1, “Bioavailable diacylhydrazine ligands for modulating the expression of exogenous genes via an ecdysone receptor complex” (Intrexon Corporation, priority 2003, dated 2015).
In brackets after ≈: the same amount, converted by molar mass.

Experiments:
[1] = tested on: mutated ecdysone receptor-based gene switch; experiment: In vivo SEAP induction, ligand by IP injection; design: species or system C57BL/6 mouse; conditions: mouse serum; for Secreted Alkaline Phosphatase (percentage of GS ™-E ligand induction) Day 2: IP 2.6 μmol ligand 3 days after electroporation, day 2 after ligand; for Secreted Alkaline Phosphatase (percentage of GS ™-E ligand induction) Day 3 / Secreted Alkaline Phosphatase (percentage of GS ™-E ligand induction) Day 11: IP 2.6 μmol ligand; for Secreted Alkaline Phosphatase (percentage of GS ™-E ligand induction) Day 3: day 3 after ligand; for Secreted Alkaline Phosphatase (percentage of GS ™-E ligand induction) Day 11: day 11 after ligand
Method in brief: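 Gene switch plasmids (receptor under CMV promoter) electroporated into quadriceps of C57BL/6 mice; 3 days later ligand given IP at 2.6 μmol or 26 nmol in 50 μL DMSO per mouse. Serum SEAP measured by chemiluminescence 2-11 days after dosing, averaged over four animals, expressed as % of GS™-E ligand induction.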

[2] = Determination of water solubility (de-ionized water, LC/MS); conditions: kinetic from dmso stock
Description: Aqueous solutions are prepared as follows in triplicate: 50 μl of a 10,000 ppm solution (2,000 μg of solid dissolved in 200 μl of methanol) of the substrate in methanol or DMSO is added to 1 mL of de-ionized water in a 2 dram or smaller vial with magnetic stirring. Stirring is continued overnight at ambient temperature. The slurry is taken up into a syringe with a luer tip. The contents are passed through a new 13 mm 0.2 ρM Acrodisc filter (tuffryn or glass fiber) into an autosampler bottle. For preparation of calibration standard solutions: dilutions of the 10,000 ppm solution were prepared at 10, 5, 1, 0.5, and 0.2 ppm. […] For more soluble materials, dilution of the samples into this range is preferable to increasing the calibration range because the non-linearity of the response results in less useful calibration curves. However a shift in the range of calibration standards is required for very insoluble compounds.
Chromatography of the samples was then preformed. For most diacylhydrazines the following conditions were adequate for the measurement. Other columns and gradients may be substituted as appropriate.
Analysis of the test samples is conducted as follows: Each solubility replicate is analyzed in duplicate. […] Standard curves are obtained from duplicate injections of the standards. The concentration of the substrate is determined by calculation from the equation relating concentration and response.

[3] = Determination of LC Log P (experimental); assay type: physicochemical; conditions: from LC retention time against log P standards; read-out: LC LogP (exp)
Description: Liquid chromatography retention times (RT) are measured for each substance using the conditions described below. A linear equation is derived relating RT to log P is developed from the data for the log P standards. The log P for the test compound is calculated from the log P/retention time equation.

## COc1cc(C(=O)N(NC(=O)c2ccc3c(c2C)OCCO3)C(C)(C)C)cc(OC)c1O [RG-115009, 4-Hydroxy-3,5-dimethoxy-benzoic acid N-tert-butyl-N′-(5-methyl-2,3-dihydro-benzo[1,4]dioxine-6-carbonyl)-hydrazide]
[1]
  Secreted Alkaline Phosphatase (percentage of GS ™-E ligand induction) Day 2: 4 percentage of GS ™-E ligand induction
  Secreted Alkaline Phosphatase (percentage of GS ™-E ligand induction) Day 3: 3 percentage of GS ™-E ligand induction
[2]
  solubility kinetic: 30.4 µM (≈ 13.5 µg/mL)
[3]
  chromatographic logP: 1.9

## Cc1c(C(=O)NN(C(=O)c2cc(F)c(F)c(F)c2)C(C)(C)C)ccc2c1CCCO2 [RG-115575, 3,4,5-Trifluoro-benzoic acid N-tert-butyl-N′-(5-methyl-chroman-6-carbonyl)-hydrazide]
[1]
  Secreted Alkaline Phosphatase (percentage of GS ™-E ligand induction) Day 2: 74 percentage of GS ™-E ligand induction
  Secreted Alkaline Phosphatase (percentage of GS ™-E ligand induction) Day 3: 78 percentage of GS ™-E ligand induction
  Secreted Alkaline Phosphatase (percentage of GS ™-E ligand induction) Day 11: 69 percentage of GS ™-E ligand induction
[2]
  solubility kinetic: 21.6 µM (≈ 9.08 µg/mL)
[3]
  chromatographic logP: 4.1

## COc1cc(C(=O)N(NC(=O)c2ccc3c(c2C)OCCO3)C(C)(C)C)cc(OC)c1C [RG-115637, 5-Methyl-2,3-dihydro-benzo[1,4]dioxine-6-carboxylic acid N′-tert-butyl-N′-(3,5-dimethoxy-4-methyl-benzoyl)-hydrazide]
[1]
  Secreted Alkaline Phosphatase (percentage of GS ™-E ligand induction) Day 2: 12 percentage of GS ™-E ligand induction
  Secreted Alkaline Phosphatase (percentage of GS ™-E ligand induction) Day 3: 7 percentage of GS ™-E ligand induction
  Secreted Alkaline Phosphatase (percentage of GS ™-E ligand induction) Day 11: 0 percentage of GS ™-E ligand induction
[2]
  solubility kinetic: 13.7 µM (≈ 6.06 µg/mL)
[3]
  chromatographic logP: 3.54
